Measured values from ChEMBL document CHEMBL4177634, “6-Substituted quinolines as RORγt inverse agonists” (Bioorg Med Chem Lett, 2017).

Molecular target: T1, Nuclear receptor ROR-gamma (Homo sapiens, UniProt P51449)
T1 sequence (P51449 whole entry): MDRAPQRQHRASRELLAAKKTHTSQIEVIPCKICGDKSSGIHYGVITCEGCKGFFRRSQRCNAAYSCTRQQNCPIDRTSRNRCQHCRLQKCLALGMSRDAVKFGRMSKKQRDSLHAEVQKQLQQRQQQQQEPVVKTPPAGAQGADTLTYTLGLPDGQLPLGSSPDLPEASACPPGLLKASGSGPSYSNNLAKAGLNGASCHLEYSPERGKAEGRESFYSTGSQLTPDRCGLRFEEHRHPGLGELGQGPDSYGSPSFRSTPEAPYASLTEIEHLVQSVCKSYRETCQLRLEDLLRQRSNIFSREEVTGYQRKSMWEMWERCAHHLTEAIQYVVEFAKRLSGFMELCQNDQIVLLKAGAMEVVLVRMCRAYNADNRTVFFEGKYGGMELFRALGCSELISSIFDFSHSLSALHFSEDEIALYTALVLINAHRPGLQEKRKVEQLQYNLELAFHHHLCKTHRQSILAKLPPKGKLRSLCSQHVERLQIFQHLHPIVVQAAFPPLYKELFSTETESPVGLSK
Experiment: Displacement of 1,8-ANS from human N-terminal His-tagged RORgammat LBD ([…]) expressed in Escherichia coli by thermofluor assay

**Q.** For `COc1nc2ccc(C(O)(c3ccccc3)C3CCN(C(C)=O)CC3)cc2c(Cl)c1Cc1ccc(-n2cccn2)cc1` (stereo in doubt; 25a), which Kd is on record?
**A.** 3.6 nM
